Tests used:
[1] = biological target: T1, wild-type mouse Pgp (MDR3) (Mus musculus, UniProt P21447)
Experimental: (§1) Overexpression of wild-type mouse Pgp (MDR3) was achieved by using genetically engineered strains of Pichia pastoris with a 6X histidine tag. The cells were cultured in glycerol media, and methanol was used to induce the overexpression of Pgp at the Bioexpression and Fermentation Facility (BFF), University of Georgia, Athens, GA, USA. A repeated cycle of freezing using liquid nitrogen, blending, and thawing was used to lyse the Pgp-expressing P. pastoris cells. The protein was purified using affinity chromatography with nickel-nitrilotriacetic acid (Ni-NTA) resin (Thermo Fisher Scientific, Waltham, MA, USA). DDM was used to solubilize the protein, and the solution was concentrated using Amicon Ultra-15 100 kDa cut-off filters (EMD Millipore, Billerica, MA, USA). The concentration of purified protein was measured at 280 nm using a calculated extinction coefficient of 1.28 per mg mL^−1 on a Nanodrop (DeNovix, Wilmington, DE, USA). […] The purified DDM-solubilized Pgp was aliquoted and stored at −80 °C for future analysis.
(§2) Approximately 40 µL of DDM-solubilized Pgp was dialyzed for two hours against HEPES buffer (20 mM HEPES, 100 mM NaCl, 5 mM MgCl2, 2 mM DTT, pH 7.4) to remove any remnants of the detergent, DDM. The dialyzed protein was mixed with 4 mg mL^−1 of the extruded liposomes and incubated on ice for at least one hour to allow Pgp to integrate into the liposomes. To remove any additional detergent and further facilitate Pgp integration into the liposome, the solution was dialyzed for a second time for two hours in HEPES buffer to form proteoliposomes, and the concentration of Pgp reconstituted in liposomes was determined using the Bio-Rad DC Protein assay. Finally, the solution was aliquoted and stored at −80 °C for future use.
Acrylamide, an aqueous collisional quencher, can be used to determine the changes in conformation upon Pgp-drug interaction. The principle of this technique is that as the drug interacts with the protein, the conformation of the accessible tryptophan residues in the protein also changes, resulting in a shift in fluorescence intensity. For this experiment, to measure the fluorescence of Pgp reconstituted in liposomes, in the presence (250 µM) or absence of drug(s), the excitation and emission wavelengths used were 295 nm and 330 nm, respectively. The proteoliposomes were diluted to a final concentration of 1 µM in Chifflet buffer (pH 7.4) containing 2 mM DTT, and it was titrated against an increasing concentration of acrylamide. A concentration of 11 µM N-acetyl-L-tryptophanamide (NATA), an analog of tryptophan, was used as a positive control to determine non-specific quenching. A saturated concentration of AMPPNP (3.2 mM), a non-hydrolysable form of ATP, was used to generate an outward-open conformation of Pgp. All the experiments for acrylamide quenching were performed at 21 °C. To correct the fluorescence intensities for background, dilution, and inner filter effects, […] was used. A Stern–Volmer plot was constructed with F0(corrected)/F(corrected) versus acrylamide concentration. The slope of the curve determined the degree of quenching, and it was related to the Stern–Volmer constant (Ksv) by Equation (4), as follows:(4) Focorrected/Fcorrected=1+KsvQ where F0(corrected)/F(corrected) = Stern–Volmer plot; Ksv = Stern–Volmer constant; and [Q] = acrylamide concentration.

[2] = biological target: T1, wild-type mouse Pgp (MDR3); assay: biochemical
Experimental: as §1, §2
The intrinsic tryptophan residues in the protein can be selectively excited and emitted at 295 nm and 330 nm wavelengths, respectively. The binding of the drug to the protein can alter the spatial arrangement encountered by the tryptophan residue(s) and thereby regulate the fluorescence intensity of the protein [52]. […] Proteoliposomes diluted to 1 µM in Chifflet buffer containing 2 mM DTT were titrated against varying concentrations of drugs. The intrinsic protein fluorescence was measured at 330 nm upon excitation at 295 nm using an Olis DM 45 spectrophotometer (Olis Corporation, Bogart, GA, USA). To nullify the effect of Rayleigh bands on the observed spectra, a 10 nm band-pass filter was inserted on the excitation and emission paths of the spectrophotometer. The drug-induced quenching of intrinsic Pgp fluorescence was corrected (Fcorrected) for factors such as dilution, background fluorescence, and inner filter effects using the equation mentioned below (Equation (2)).(2) Fcorrected=F−B10^εexbex+εembemQ/2 where Fcorrected = Drug-induced quenching of intrinsic Pgp fluorescence; F = Emitted intrinsic Pgp fluorescence at 330 nm; [Q] = Concentration of drug; εex and εem = Excitation and emission extinction coefficients, respectively; bex and bem = Path lengths of excitation (0.4 mm) and emission (10 mm) wavelengths, respectively; and B = Background fluorescence measured from drug and solvent.
The resulting quenching curves were fit using a modified Stern-Volmer equation (Equation (3)), as follows:(3) Fcorrected=FOcorrected/1+KsvQ+Funquenched where Fcorrected = The corrected fluorescence; F0(corrected) = Fluorescence recorded in the absence of drug; [Q] = Concentration of drug; Ksv = Stern–Volmer constant; and F(unquenched) = unquenched fluorescence.

[3] = biological target: T1, wild-type mouse Pgp (MDR3); details: mouse, not told, pH 7.4
Excerpt: The STDD NMR technique is a robust method used to characterize the interaction between a drug and receptor protein [36, 86]. This technique utilizes a saturated low-strength radio frequency (RF) to selectively excite the receptor protein. […] Due to the localization of Pgp, most of its substrates are lipophilic, resulting in a probable non-specific interaction between its substrates and liposomes in the observed STD NMR spectrum. Therefore, STD NMR of liposomes in the presence of drugs was performed. The resulting spectrum was subtracted from the ^1H STD NMR spectrum obtained from the drug in the presence of proteoliposome (Pgp reconstituted into liposome) to achieve a saturation transfer double-difference (STDD) NMR spectrum, which nullified the STD observations of the drugs in the presence of liposomes.
This technique was performed as previously described. […] The NMR tubes with the sample were centrifuged at 3000× g for 5 min. To suppress the background signals caused by water, a tailored gradient pulse sequence known as water suppression by gradient-tailored excitation (WATERGATE) was also included. A train of 50 ms Gaussian-shaped selective pulses was used to selectively excite and saturate Pgp for two seconds, and a relaxation delay of five seconds was also used. The STD NMR spectra for both the control and the samples were obtained through phase cycling, where the Pgp irradiation resonance was alternated between 1.5 ppm and 42 ppm on and off resonance, respectively, for 512 scans, creating the ^1H NMR spectrum.
For this experiment, the NMR studies were performed on a Bruker Avance NEO 800 MHz NMR spectrometer with a 1.7 mm TCI H{CN} probe at 25 °C. The STD NMR data generated were analyzed using iNMR software (Nucleomatic, Molfetta, Italy), Igor Pro 6.2, and Mnova 14.2.0 (Mastrelab Research S.L., Santiago de Compostela, Spain).

T1 sequence (P21447 whole entry): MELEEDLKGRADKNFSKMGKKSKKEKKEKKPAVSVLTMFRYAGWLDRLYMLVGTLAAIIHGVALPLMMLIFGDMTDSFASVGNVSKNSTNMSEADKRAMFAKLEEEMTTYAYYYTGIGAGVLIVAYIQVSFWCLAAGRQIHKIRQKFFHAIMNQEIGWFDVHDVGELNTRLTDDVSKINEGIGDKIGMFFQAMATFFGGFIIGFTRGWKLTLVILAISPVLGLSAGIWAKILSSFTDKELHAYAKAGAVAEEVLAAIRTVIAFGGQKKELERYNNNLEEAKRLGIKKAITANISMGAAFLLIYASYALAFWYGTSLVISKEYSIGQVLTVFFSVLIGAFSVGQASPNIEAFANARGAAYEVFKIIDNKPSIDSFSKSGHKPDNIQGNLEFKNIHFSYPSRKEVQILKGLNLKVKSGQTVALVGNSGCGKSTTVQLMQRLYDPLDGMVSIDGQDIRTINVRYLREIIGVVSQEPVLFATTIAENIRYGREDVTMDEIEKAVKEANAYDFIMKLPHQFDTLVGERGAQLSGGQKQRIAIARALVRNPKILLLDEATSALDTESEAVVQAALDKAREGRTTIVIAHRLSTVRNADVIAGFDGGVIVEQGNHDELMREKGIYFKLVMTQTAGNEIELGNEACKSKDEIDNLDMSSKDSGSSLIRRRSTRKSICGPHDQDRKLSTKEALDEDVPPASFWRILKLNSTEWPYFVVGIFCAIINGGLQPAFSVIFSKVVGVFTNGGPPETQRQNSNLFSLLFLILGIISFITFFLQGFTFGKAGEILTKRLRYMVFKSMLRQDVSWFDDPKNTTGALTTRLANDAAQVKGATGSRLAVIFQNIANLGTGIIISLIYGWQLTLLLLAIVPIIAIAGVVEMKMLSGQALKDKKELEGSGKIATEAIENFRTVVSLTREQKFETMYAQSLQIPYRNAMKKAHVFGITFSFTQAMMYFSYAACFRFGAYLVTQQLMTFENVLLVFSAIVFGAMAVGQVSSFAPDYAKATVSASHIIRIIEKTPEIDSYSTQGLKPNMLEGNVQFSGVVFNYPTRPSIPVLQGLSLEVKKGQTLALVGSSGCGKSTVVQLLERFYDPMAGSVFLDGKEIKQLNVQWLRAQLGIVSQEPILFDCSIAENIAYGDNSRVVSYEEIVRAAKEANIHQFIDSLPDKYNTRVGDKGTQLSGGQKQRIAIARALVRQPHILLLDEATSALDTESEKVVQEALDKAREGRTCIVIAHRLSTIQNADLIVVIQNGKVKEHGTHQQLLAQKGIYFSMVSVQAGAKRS

| SMILES | Ksv of Pgp (acrylamide quenching) in the presence of AMPPNP alone [1] [M⁻¹] | Pgp conformation upon drug binding in the absence of a nucleotide [1] | Kd [2] [µM] | Interaction (Region/Group) Pgp (STDD-NMR Data) [3] |
| --- | --- | --- | --- | --- |
| Nc1ncnc2c1ncn2[C@@H]1O[C@H](COP(=O)([O-])OP(=O)([O-])NP(=O)([O-])[O-])[C@@H](O)[C@H]1O.[Li+].[Li+].[Li+].[Li+] [AMPPNP, Adenosine 5′-(β,γ-imido) triphosphate lithium salt] | 1.6 ± 0.01 |  |  |  |
| C[C@H]1O[C@@H](O[C@H]2[C@@H](O)C[C@H](O[C@H]3[C@@H](O)C[C@H](O[C@H]4CC[C@@]5(C)[C@H](CC[C@@H]6[C@@H]5CC[C@]5(C)[C@@H](C7=CC(=O)OC7)CC[C@]65O)C4)O[C@@H]3C)O[C@@H]2C)C[C@H](O)[C@@H]1O [Digitoxin] |  | intermediate | 16.7 ± 4.44 | Protons on C3,C17, C18, C19 of steroid; C22 of lactone; C3,C5,C6 of sugar |

Reference: PMC12386283, “Elucidating the Complex Structural and Molecular Mechanisms Driving P-Glycoprotein-Mediated Transport of Cardiac Glycosides” (International Journal of Molecular Sciences, 2025)
